In brackets after ≈: the same amount, converted by molar mass.
What was measured:
Type in all cases: functional
Candida albicans [1] = assay: Antifungal activity against Candida albicans; settings: Candida albicans
Candida tropicalis [2] = assay: Antifungal activity against Candida tropicalis; settings: Candida tropicalis
Cryptococcus neoformans [3] = assay: Antifungal activity against Cryptococcus neoformans; settings: Cryptococcus neoformans
Aspergillus fumigatus [4] = assay: Antifungal activity against Aspergillus fumigatus; settings: Aspergillus fumigatus; read-out: MIC
Pichia kudriavzevii = assay: Antifungal activity against Candida krusei
Candida parapsilosis = assay: Antifungal activity against Candida parapsilosis; settings: Lodderomyces parapsilosis
Candida tropicalis [5] = assay: Antifungal activity against Candida tropicalis after 24 hrs by microbroth dilution method
Trichophyton rubrum [6] = assay: Antifungal activity against Trichophyton rubrum after 24 hrs by microbroth dilution method
Microsporum canis [7] = assay: Antifungal activity against Microsporum canis after 24 hrs by microbroth dilution method
Fonsecaea compacta [8] = assay: Antifungal activity against Fonsecaea compacta after 24 hrs by microbroth dilution method
Aspergillus fumigatus [9] = assay: Antifungal activity against Aspergillus fumigatus after 24 hrs by microbroth dilution method
Candida tropicalis [10] = assay: Potency index, ratio of fluconazole MIC to test compound MIC for Candida tropicalis
Candida albicans [11] = assay: Potency index, ratio of fluconazole MIC to test compound MIC for Candida albicans ATCC 76615
Cryptococcus neoformans [12] = assay: Potency index, ratio of fluconazole MIC to test compound MIC for activity against Cryptococcus neoformans ATCC 32609
Trichophyton rubrum [13] = assay: Potency index, ratio of fluconazole MIC to test compound MIC for Trichophyton rubrum
Microsporum canis [14] = assay: Potency index, ratio of fluconazole MIC to test compound MIC for Microsporum canis
Fonsecaea compacta [15] = assay: Potency index, ratio of fluconazole MIC to test compound MIC for Fonsecaea compacta
Aspergillus fumigatus [16] = assay: Potency index, ratio of fluconazole MIC to test compound MIC for Aspergillus fumigatus
Candida albicans [17] = assay: Antifungal activity against Candida albicans after 24 hrs by NCCLS protocol based method
Candida tropicalis [18] = assay: Antifungal activity against Candida tropicalis after 24 hrs by NCCLS protocol based method
Cryptococcus neoformans [19] = assay: Antifungal activity against Cryptococcus neoformans after 72 hrs by NCCLS protocol based method
Trichophyton rubrum [20] = assay: Antifungal activity against Trichophyton rubrum after 7 days by NCCLS protocol based method; settings: 168 h
Nannizzia gypsea = assay: Antifungal activity against Microsporum gypseum after 7 days by NCCLS protocol based method; settings: 168 h

CCCCOc1ccccc1N1CCN(CCc2nnn(CC(O)(Cn3cncn3)c3ccc(F)cc3F)n2)CC1 (centres undefined)
MIC (Candida albicans [1]; read-out: MIC): 1 to 8 µg/mL (≈ 1.76 to 14.1 µM) | MIC (Candida tropicalis [2]; read-out: MIC): 1 to 8 µg/mL (≈ 1.76 to 14.1 µM) | MIC (Cryptococcus neoformans [3]; read-out: MIC): 1 to 8 µg/mL (≈ 1.76 to 14.1 µM) | MIC (Aspergillus fumigatus [4]): 1 to 8 µg/mL (≈ 1.76 to 14.1 µM) | MIC (Pichia kudriavzevii): 1 to 8 µg/mL (≈ 1.76 to 14.1 µM)

CN(CC(=O)Nc1ccc(Cl)c(Cl)c1)CC(O)(Cn1cncn1)c1ccc(F)cc1F (centres undefined)
MIC80 (Candida albicans [1]): 0.0156 µg/mL (≈ 0.0332 µM) | MIC80 (Candida parapsilosis): 0.25 to 1 µg/mL (≈ 0.532 to 2.13 µM) | MIC80 (Candida tropicalis [2]): 0.25 to 1 µg/mL (≈ 0.532 to 2.13 µM) | MIC80 (Cryptococcus neoformans [3]): 0.0156 µg/mL (≈ 0.0332 µM) | MIC80 (Pichia kudriavzevii): 0.25 to 1 µg/mL (≈ 0.532 to 2.13 µM)

OC(CN(Cc1ccccc1)C1CC1)(Cn1cncn1)c1ccc(F)cc1F (centres undefined)
MIC80 (Candida tropicalis [5]): 0.125 µg/mL (≈ 0.325 µM) | MIC80 (Trichophyton rubrum [6]): 0.125 µg/mL (≈ 0.325 µM) | MIC80 (Microsporum canis [7]): 0.125 µg/mL (≈ 0.325 µM) | MIC80 (Fonsecaea compacta [8]): 0.125 µg/mL (≈ 0.325 µM) | MIC80 (Aspergillus fumigatus [9]): 0.125 µg/mL (≈ 0.325 µM) | Ratio (Candida tropicalis [10]): 4 | Ratio (Candida albicans [11]): 4 | Ratio (Cryptococcus neoformans [12]): 4 | Ratio (Trichophyton rubrum [13]): 4 | Ratio (Microsporum canis [14]): 4 | Ratio (Fonsecaea compacta [15]): 4 | Ratio (Aspergillus fumigatus [16]): 4

Cc1ccccc1OCCCN(C)CC(O)(Cn1cncn1)c1ccc(F)cc1F (centres undefined)
MIC (Candida albicans [17]): 0.001 to 0.016 µg/mL (≈ 0.0024 to 0.0384 µM) | MIC (Candida tropicalis [18]): 0.001 to 0.016 µg/mL (≈ 0.0024 to 0.0384 µM) | MIC (Cryptococcus neoformans [19]): 0.001 to 0.016 µg/mL (≈ 0.0024 to 0.0384 µM) | MIC (Trichophyton rubrum [20]): 0.001 to 0.016 µg/mL (≈ 0.0024 to 0.0384 µM) | MIC (Nannizzia gypsea): 0.001 to 0.016 µg/mL (≈ 0.0024 to 0.0384 µM)

OC(CN(Cc1ccccc1F)C1CC1)(Cn1cncn1)c1ccc(F)cc1F (centres undefined)
MIC80 (Candida tropicalis [5]): 0.125 µg/mL (≈ 0.311 µM) | MIC80 (Trichophyton rubrum [6]): 0.125 µg/mL (≈ 0.311 µM) | MIC80 (Microsporum canis [7]): 0.125 µg/mL (≈ 0.311 µM) | MIC80 (Fonsecaea compacta [8]): 0.125 µg/mL (≈ 0.311 µM) | MIC80 (Aspergillus fumigatus [9]): 0.125 µg/mL (≈ 0.311 µM) | Ratio (Candida tropicalis [10]): 4 | Ratio (Candida albicans [11]): 4 | Ratio (Cryptococcus neoformans [12]): 4 | Ratio (Trichophyton rubrum [13]): 4 | Ratio (Microsporum canis [14]): 4 | Ratio (Fonsecaea compacta [15]): 4 | Ratio (Aspergillus fumigatus [16]): 4

CN(CCCOc1cccc([N+](=O)[O-])c1)CC(O)(Cn1cncn1)c1ccc(F)cc1F (centres undefined)
MIC (Candida albicans [17]): 0.001 to 0.016 µg/mL (≈ 0.00223 to 0.0358 µM) | MIC (Candida tropicalis [18]): 0.001 to 0.016 µg/mL (≈ 0.00223 to 0.0358 µM) | MIC (Cryptococcus neoformans [19]): 0.001 to 0.016 µg/mL (≈ 0.00223 to 0.0358 µM) | MIC (Trichophyton rubrum [20]): 0.001 to 0.016 µg/mL (≈ 0.00223 to 0.0358 µM) | MIC (Nannizzia gypsea): 0.001 to 0.016 µg/mL (≈ 0.00223 to 0.0358 µM)

COc1ccc(OCCCN(C)CC(O)(Cn2cncn2)c2ccc(F)cc2F)cc1 (centres undefined)
MIC (Candida albicans [17]): 0.001 to 0.016 µg/mL (≈ 0.00231 to 0.037 µM) | MIC (Candida tropicalis [18]): 0.001 to 0.016 µg/mL (≈ 0.00231 to 0.037 µM) | MIC (Cryptococcus neoformans [19]): 0.001 to 0.016 µg/mL (≈ 0.00231 to 0.037 µM) | MIC (Trichophyton rubrum [20]): 0.001 to 0.016 µg/mL (≈ 0.00231 to 0.037 µM) | MIC (Nannizzia gypsea): 0.001 to 0.016 µg/mL (≈ 0.00231 to 0.037 µM)

Cc1ccc(OCCCN(C)CC(O)(Cn2cncn2)c2ccc(F)cc2F)cc1 (centres undefined)
MIC (Candida albicans [17]): 0.001 µg/mL (≈ 0.0024 µM) | MIC (Candida tropicalis [18]): 0.001 µg/mL (≈ 0.0024 µM) | MIC (Cryptococcus neoformans [19]): 0.001 µg/mL (≈ 0.0024 µM) | MIC (Trichophyton rubrum [20]): 0.001 µg/mL (≈ 0.0024 µM) | MIC (Nannizzia gypsea): 0.001 µg/mL (≈ 0.0024 µM)

Cc1cccc(OCCCN(C)CC(O)(Cn2cncn2)c2ccc(F)cc2F)c1 (centres undefined)
MIC (Candida albicans [17]): 0.001 µg/mL (≈ 0.0024 µM) | MIC (Candida tropicalis [18]): 0.001 µg/mL (≈ 0.0024 µM) | MIC (Cryptococcus neoformans [19]): 0.001 µg/mL (≈ 0.0024 µM) | MIC (Trichophyton rubrum [20]): 0.001 µg/mL (≈ 0.0024 µM) | MIC (Nannizzia gypsea): 0.001 µg/mL (≈ 0.0024 µM)

Reference: ChEMBL document CHEMBL4396865, “Current advances of triazole alcohols derived from fluconazole: Design, in vitro and in silico studies” (2019)
